Assay results from patent publication US11851428B2, “Activator of TREK (TWIK RElated K+channels) channels” (ONO PHARMACEUTICAL CO., LTD., priority 2016, dated 2023).

target: T1, human TREK-1 (Homo sapiens, UniProt O95069); assay: thallium flux assay (TREK1 activation normalized to BL-1249); type: cell-based; settings: concentration of Example compound 10 μM; normalized to 10 μM BL-1249; CHO-K1 cells stably expressing human TREK-1
T1 construct: expressed in transfected cells
T1 sequence (O95069 1-426): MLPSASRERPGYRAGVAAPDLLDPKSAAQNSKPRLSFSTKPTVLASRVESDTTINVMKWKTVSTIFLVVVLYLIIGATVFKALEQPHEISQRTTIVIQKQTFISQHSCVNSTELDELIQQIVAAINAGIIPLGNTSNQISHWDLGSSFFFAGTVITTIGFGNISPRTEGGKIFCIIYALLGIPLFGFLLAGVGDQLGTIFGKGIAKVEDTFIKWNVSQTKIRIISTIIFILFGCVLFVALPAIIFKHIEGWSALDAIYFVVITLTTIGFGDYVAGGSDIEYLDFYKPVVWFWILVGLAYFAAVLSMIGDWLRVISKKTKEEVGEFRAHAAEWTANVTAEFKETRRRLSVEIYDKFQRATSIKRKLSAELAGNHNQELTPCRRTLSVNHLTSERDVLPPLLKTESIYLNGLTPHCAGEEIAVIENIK
Procedure: The term “thallium flux assay” herein refers to a fluorescence-based assay used to monitor the activity of TREK channels. Thallium is a congener of potassium that readily fluxes through the pore of TREK channels. Thallium flux is measured using a commercially available, thallium-sensitive fluorescent dye called Thallos. The detail method is described below.
Method 1 (Thallium Flux Assay);
CHO-K1 cells stably expressing human TREK-1 or HEK293 cells stably expressing human TREK-2 are plated in 384-well plates, cultured overnight, loaded with Thallos dye the following day, treated with test compounds for 10 min, and then treated with thallium stimulus buffer to initiate thallium flux. The change in fluorescence at 25 seconds after thallium addition is normalized to baseline fluorescence (fluorescent intensity at 25 sec after Tl^+ addition)/(average of fluorescent intensity at pre-read).

| Structure (SMILES) | TREK1 activation RBL-1249 (%) |
| --- | --- |
| O=C(NCc1ccc(OC(F)(F)F)c(F)c1)c1ccc2ncnn2c1 [Example 1-23] | 63% |
| O=C(NCc1ccc(Br)cc1Cl)c1ccc2ncnn2c1 [Example 1-28] | 99% |

same assay, conditions: concentration of Example compound 10 μM; normalized to 10 μM BL-1249; CHO-K1 cells stably expressing human TREK-1; read-out: TREK1 activation RBL-1249 (%)

| Structure (SMILES) | activation at 10 µM |
| --- | --- |
| O=C(NCc1ccc(OC(F)(F)F)cc1)c1ccc(-n2cncn2)cc1 [4-(1H-1,2,4-triazol-1-yl)-N-[4-(trifluoromethoxy)benzyl]benzamide] | 63% |
| Cc1cc(OC(F)(F)F)ccc1CNC(=O)c1ccc2ncnn2c1 [Example 1, N-[2-Methyl-4-(trifluoromethoxy)benzyl]-[1,2,4]triazolo[1,5-a]pyridine-6-carboxamide] | 88% |
| O=C(NCc1ccc(OC(F)(F)F)cc1)c1ccn2cnnc2c1 [Example 1-3, N-[4-(trifluoromethoxy)benzyl][1,2,4]triazolo(4,3-a]pyridine-7-carboxamide] | 28% |
| O=C(NCc1ccc(Cl)cc1Cl)c1ccc2ncnn2c1 [Example 1-5, N-(2,4-dichlorobenzyl)[1,2,4]triazolo[1,5-a]pyridine-6-carboxamide] | 44% |
| O=C(NCc1ccc(Cl)cc1Cl)c1ccc2[nH]ncc2c1 [Example 1-6, N-(2,4-dichlorobenzyl)-1H-indazole-5-carboxamide] | 26% |
| O=C(NCc1ccc(OC(F)(F)F)cc1F)c1ccc(F)nc1 [Example 1-13, 6-fluoro-N-[2-fluoro-4-(trifluoromethoxy)benzyl]nicotinamide] | 65% |
| O=C(NCc1ccc(C(F)(F)F)cc1Cl)c1cccc2ncnn12 [Example 1-27, N-[2-chloro-4-(trifluoromethyl)benzyl][1,2,4]triazolo[1,5-a]pyridine-5-carboxamide] | 91% |
| O=C(NCc1ccc(OC(F)(F)F)cc1F)c1ccn2cnnc2c1 [Example 1-29, N-[2-fluoro-4-(trifluoromethoxy)benzyl][1,2,4]triazolo[4,3-a]pyridine-7-carboxamide] | 80% |
| O=C(NCc1ccc(C(F)(F)F)cc1Cl)c1ccn2cnnc2c1 [Example 1-31, N-[2-chloro-4-(trifluoromethyl)benzyl][1,2,4]triazolo[4,3-a]pyridine-7-carboxamide] | 90% |
| O=C(NCc1ccc(OC(F)(F)F)cc1)c1cc2cccnc2s1 [Example 1-33, N-(4-(trifluoromethoxy)benzyl]thieno[2,3-b]pyridine-2-carboxamide] | 26% |
| O=C(NCc1ccc(OC(F)(F)F)cc1)c1cnc(C(F)(F)F)nc1 [Example 1-34, N-[4-(trifluoromethoxy)benzyl]-2-(trifluoromethyl)-5-pyrimidinecarboxamide] | 33% |
| O=C(NCc1ccc(OC(F)(F)F)cc1)c1ccc2nccnc2c1 [Example 1-36, N-[4-(trifluoromethoxy)benzyl]-6-quinoxalinecarboxamide] | 26% |
| Cc1cc(OC(F)(F)F)ccc1CNC(=O)c1ccn2cnnc2c1 [Example 1-45, N-[2-methyl-4-(trifluoromethoxy)benzyl][1,2,4]triazolo[4,3-a]pyridine-7-carboxamide] | 85% |
| Cc1cc(OC(F)(F)F)ccc1CNC(=O)c1cc2ncccn2n1 [Example 1-46, N-[2-methyl-4-(trifluoromethoxy)benzyl]pyrazolo[1,5-a]pyrimidine-2-carboxamide] | 67% |
| O=C(NCc1ccc(C(F)(F)F)cc1Cl)c1cc2ncccn2n1 [Example 1-47, N-(2-chloro-4-(trifluoromethyl)benzyl]pyrazolo[1,5-a]pyrimidine-2-carboxamide] | 63% |
| O=C(NCc1ccc(OC(F)(F)F)cc1F)c1cc2ncccn2n1 [Example 1-50, N-[2-fluoro-4-(trifluoromethoxy)benzyl]pyrazolo[1,5-a]pyrimidine-2-carboxamide] | 66% |
| COc1cc(OC(F)(F)F)ccc1CNC(=O)c1cc2ncccn2n1 [Example 1-51, N-[2-methoxy-4-(trifluoromethoxy)benzyl]pyrazolo[1,5-a]pyrimidine-2-carboxamide] | 65% |
| O=C(NCc1ccc(OC(F)(F)F)c(F)c1)c1cc2ncccn2n1 [Example 1-52, N-[3-fluoro-4-(trifluoromethoxy)benzyl]pyrazolo[1,5-a]pyrimidine-2-carboxamide] | 75% |
| O=C(NCc1ccc(OC(F)(F)F)cc1)c1ccc2[nH]ncc2c1 [Example 1-71, N-[4-(trifluoromethoxy)benzyl]-1H-indazole-5-carboxamide] | 19% |
| O=C(NCc1ccc(Br)cc1Cl)c1ccc2[nH]nnc2c1 [Example 1-76, N-[(4-bromo-2-chlorophenyl)methyl]-1H-benzotriazole-5-carboxamide] | 101% |
| O=C(NCc1ccc(OC(F)(F)F)cc1F)c1cnc2ccnn2c1 [Example 1-81, N-[[2-fluoro-4-(trifluoromethoxy)phenyl]methyl]pyrazolo[1,5-a]pyrimidine-6-carboxamide] | 78% |
| O=C(NCc1ccc(Br)cc1Cl)c1ccc2snnc2c1 [Example 1-86, N-[(4-bromo-2-chlorophenyl)methyl]-1,2,3-benzothiadiazole-5-carboxamide] | 75% |

same assay, conditions: concentration of Example compound 30 μM; normalized to 10 μM BL-1249; CHO-K1 cells stably expressing human TREK-1

| Structure (SMILES) | TREK1 activation RBL-1249 (%) |
| --- | --- |
| Cc1cc(OC(F)(F)F)ccc1CNC(=O)c1cc(F)nc(F)c1 [Example 1-55, 2-6-difluoro-N-[2-methyl-4-(trifluorothoxy)benzyl]isonicotinamide] | 38% |

same assay, conditions: concentration of Example compound 30 μM; normalized to 10 μM BL-1249; CHO-K1 cells stably expressing human TREK-1; read-out: TREK1 activation RBL-1249 (%)

| Structure (SMILES) | activation at 30 µM |
| --- | --- |
| O=C(NCc1ccc(OC(F)(F)F)cc1F)c1ccnc(F)c1 [Example 1-12, 2-fluoro-N-[2-fluoro-4-(trifluoromethoxy)benzyl]isonicotinamide] | 63% |
| O=C(NCc1ccc(OC(F)(F)F)cc1)c1ccn2ncnc2c1 [Example 1-21, N-[4-(trifluoromethoxy)benzyl][1,2,4]triazolo[1,5-a]pyridine-7-carboxamide] | 73% |
| COc1cc(OC(F)(F)F)ccc1CNC(=O)c1ccc2ncnn2c1 [Example 1-26, N-[2-methoxy-4-(trifluoromethoxy)benzyl][1,2,4]triazolo[1,5-a]pyridine-6-carboxamide] | 74% |
| COc1cc(OC(F)(F)F)ccc1CNC(=O)c1ccn2cnnc2c1 [Example 1-30, N-[2-methoxy-4-(trifluoromethoxy)benzyl][1,2,4]triazolo[4,3-a]pyridine-7-carboxamide] | 76% |
| O=C(NCc1ccc(OC(F)(F)F)cc1)c1cn[nH]c(=O)c1 [Example 1-42, 6-oxo-N-[4-(trifluoromethoxy)benzyl]-1,6-dihydro-4-pyridazinecarboxamide] | 41% |
| O=C(NCc1ccc(OC(F)(F)F)cc1)c1nc2ncccn2n1 [Example 1-44, N-[4-(trifluoromethoxy)benzyl][1,2,4]triazolo[1,5-a]pyrimidine-2-carboxamide] | 25% |
| Cc1cc(OC(F)(F)F)ccc1CNC(=O)c1nc2ncccn2n1 [Example 1-61, N-[2-methyl-4-(trifluoromethoxy)benzyl][1,2,4]triazolo[1,5-a]pyrimidine-2-carboxamide] | 48% |
| O=C(NCc1ccc(OC(F)(F)F)cc1)c1ccc2[nH]cnc2c1 [Example 1-72, N-[4-(trifluoromethoxy)benzyl]-1H-benzimidazole-5-carboxamide] | 60% |
